Results from patent publication US9765069B2, “Antimicrobial compounds” (OXFORD UNIVERSITY INNOVATION LIMITED, priority 2012, dated 2017).
In brackets after ≈: the same amount, converted by molar mass.

Tests used:
[1] = tested on: E2; assay: MIC determination (bacteria), strain E2; format: cell-based, enterococcus; conditions: 2-fold broth dilution
Procedure: (§1) MIC determination (bacteria); MICs were determined based on Clinical and Laboratory Standards Institute (CLSI) methodology (Methods for dilution antimicrobial susceptibility tests for bacteria that grow aerobically; Approved Standard—seventh edition. 2006, M7-A7, CLSI, Wayne Pa.) by a 2-fold broth dilution technique in Mueller Hinton (pH7.4 Biorad). For S. pneumoniae, the medium was supplemented with 2.5% laked horse blood. For H. influenzae, the medium was haemophilus test medium (H.T.M.). Overnight cultures were diluted to obtain the final inoculum of 10^5 cfu/well. Incubation was 37° C. overnight in ambient air. The MIC was defined as the lowest concentration which inhibited all visual growth and expressed in μg/ml. For each bacterial species, all of the molecules were tested in the same experiment in order to give a head-to-head comparison.

[2] = tested on: S4; assay: MIC determination (bacteria), strain S4; format: cell-based, S. aureus; conditions: 2-fold broth dilution
Procedure: as §1

[3] = tested on: P1; assay: MIC determination (bacteria), strain P1; format: cell-based, S. pneumoniae; conditions: 2-fold broth dilution
Procedure: as §1

[4] = tested on: H4; assay: MIC determination (bacteria), strain H4; format: cell-based, H. influenzae; conditions: haemophilus test medium
Procedure: as §1

[5] = tested on: S2 (S. aureus 2, MRSA in vivo); assay: MIC determination (bacteria), strain S2; format: cell-based; conditions: 2-fold broth dilution
Procedure: as §1

[6] = tested on: E1; assay: MIC determination (bacteria), strain E1; format: cell-based, enterococcus; conditions: 2-fold broth dilution
Procedure: as §1

[7] = tested on: S26; assay: MIC determination (bacteria), strain S26; format: cell-based, S. aureus; conditions: 2-fold broth dilution
Procedure: as §1

[8] = tested on: P9; assay: MIC determination (bacteria), strain P9; format: cell-based, S. pneumoniae; conditions: 2-fold broth dilution
Procedure: as §1

[9] = tested on: H3; assay: MIC determination (bacteria), strain H3; format: cell-based, H. influenzae; conditions: haemophilus test medium
Procedure: as §1

[10] = tested on: P9B; assay: MIC determination (bacteria), strain P9B; format: cell-based, S. pneumoniae; conditions: 2-fold broth dilution
Procedure: as §1

[11] = tested on: S1; assay: MIC determination (bacteria), strain S1; format: cell-based, S. aureus; conditions: 2-fold broth dilution
Procedure: as §1

[12] = Streptococcus pneumoniae, Table 2

## Cc1ccccc1C(=O)N1CC(=O)C(=C(O)CCCCC2CCCCC2)C1=O [27s]
[1]; Table 2
  MIC E2: 8 µg/mL (≈ 20.9 µM)
[2]; Table 2
  MIC S4: 16 µg/mL (≈ 41.7 µM)
[3]; Table 2
  MIC P1: 2 µg/mL (≈ 5.22 µM)
[4]; Table 2 and its footnote f
  MIC H4: 4 µg/mL (≈ 10.4 µM)
[5]; Table 2
  MIC S2: 16 µg/mL (≈ 41.7 µM)
[6]; Table 2
  MIC E1: 8 µg/mL (≈ 20.9 µM)
[7]; Table 2
  MIC S26: 16 µg/mL (≈ 41.7 µM)
[8]; Table 2
  MIC P9: 2 µg/mL (≈ 5.22 µM)
[9]; Table 2
  MIC H3: 32 µg/mL (≈ 83.4 µM)
[10]; Table 2
  MIC P9B: 16 µg/mL (≈ 41.7 µM)
[11]; Table 2
  MIC S1: 16 µg/mL (≈ 41.7 µM)

## CCCCCC(O)=C1C(=O)C(CCSC)N(C(=O)C2CCCCC2)C1=O (centres unmarked) [24d]
[1]; Table 1
  MIC E2: 2 µg/mL (≈ 5.24 µM)
[2]; Table 1
  MIC S4: 2 µg/mL (≈ 5.24 µM)
[3]; Table 1
  MIC P1: 2 µg/mL (≈ 5.24 µM)
[4]; Table 1
  MIC H4: 4 µg/mL (≈ 10.5 µM)
[5]; Table 1
  MIC S2: 4 µg/mL (≈ 10.5 µM)
[6]; Table 1
  MIC E1: 2 µg/mL (≈ 5.24 µM)
[7]; Table 1
  MIC S26: 4 µg/mL (≈ 10.5 µM)
[8]; Table 1
  MIC P9: 2 µg/mL (≈ 5.24 µM)
[9]; Table 1
  MIC H3: 32 µg/mL (≈ 83.9 µM)
[10]; Table 1
  MIC P9B: 4 µg/mL (≈ 10.5 µM)
[11]; Table 1
  MIC S1: 2 µg/mL (≈ 5.24 µM)

## O=C1CCN(C(=O)c2ccccc2)C(=O)C1=C(O)CCCCC1CCCCC1 [19c]
[1]; Table 2
  MIC E2: 2 µg/mL (≈ 5.22 µM)
[2]; Table 2
  MIC S4: 2 µg/mL (≈ 5.22 µM)
[3]; Table 2
  MIC P1: 1 µg/mL (≈ 2.61 µM)
[4]; Table 2 and its footnote f
  MIC H4: 8 µg/mL (≈ 20.9 µM)
[5]; Table 2
  MIC S2: 2 µg/mL (≈ 5.22 µM)
[6]; Table 2
  MIC E1: 2 µg/mL (≈ 5.22 µM)
[7]; Table 2
  MIC S26: 2 µg/mL (≈ 5.22 µM)
[8]; Table 2
  MIC P9: 1 µg/mL (≈ 2.61 µM)
[9]; Table 2
  MIC H3: 16 µg/mL (≈ 41.7 µM)
[10]; Table 2
  MIC P9B: 4 µg/mL (≈ 10.4 µM)
[11]; Table 2
  MIC S1: 1 µg/mL (≈ 2.61 µM)

## CCCCCCC(=O)N1CC(=O)/C(=C(/O)CO[C@H]2C[C@@H](C)CC[C@@H]2C(C)C)C1=O [27n]
[1]; Enterococcus, Table 2
  MIC: 2 µg/mL (≈ 4.91 µM)
[2]; Staphylococcus aureus, Table 2
  MIC: > 64 µg/mL
[3]; [12]
  MIC: 0.5 µg/mL (≈ 1.23 µM)
[4]; Haemophilus influenzae, Table 2 and its footnote f
  MIC: 2 µg/mL (≈ 4.91 µM)
[5]; Staphylococcus aureus, MRSA, Table 2
  MIC: > 64 µg/mL
[6]; Enterococcus, Table 2
  MIC: 8 µg/mL (≈ 19.6 µM)
[7]; Staphylococcus aureus, Table 2
  MIC: > 64 µg/mL
[8]; [12]
  MIC: 0.5 µg/mL (≈ 1.23 µM)
[9]; Haemophilus influenzae, Table 2
  MIC: > 64 µg/mL
[10]; [12]
  MIC: 8 µg/mL (≈ 19.6 µM)
[11]; Staphylococcus aureus, Table 2
  MIC: > 64 µg/mL

## CCCC(=O)N1CC(=O)C(=C(O)CC23CC4CC(CC(C4)C2)C3)C1=O [27j]
[1]; Table 2
  MIC E2: 8 µg/mL (≈ 23.2 µM)
[2]; Table 2
  MIC S4: 16 µg/mL (≈ 46.3 µM)
[3]; Table 2
  MIC P1: 4 µg/mL (≈ 11.6 µM)
[4]; Table 2 and its footnote f
  MIC H4: 4 µg/mL (≈ 11.6 µM)
[5]; Table 2
  MIC S2: 16 µg/mL (≈ 46.3 µM)
[6]; Table 2
  MIC E1: 8 µg/mL (≈ 23.2 µM)
[7]; Table 2
  MIC S26: 16 µg/mL (≈ 46.3 µM)
[8]; Table 2
  MIC P9: 4 µg/mL (≈ 11.6 µM)
[9]; Table 2
  MIC H3: 16 µg/mL (≈ 46.3 µM)
[10]; Table 2
  MIC P9B: 4 µg/mL (≈ 11.6 µM)
[11]; Table 2
  MIC S1: 16 µg/mL (≈ 46.3 µM)

## CSCCC1C(=O)C(=C(O)CC23CC4CC(CC(C4)C2)C3)C(=O)N1C(C)=O (centres unmarked) [31d]
[1]; Table 2
  MIC E2: 16 µg/mL (≈ 40.9 µM)
[2]; Table 2
  MIC S4: 16 µg/mL (≈ 40.9 µM)
[3]; Table 2
  MIC P1: 8 µg/mL (≈ 20.4 µM)
[4]; Table 2 and its footnote f
  MIC H4: 4 µg/mL (≈ 10.2 µM)
[5]; Table 2
  MIC S2: 32 µg/mL (≈ 81.7 µM)
[6]; Table 2
  MIC E1: 16 µg/mL (≈ 40.9 µM)
[7]; Table 2
  MIC S26: 32 µg/mL (≈ 81.7 µM)
[8]; Table 2
  MIC P9: 8 µg/mL (≈ 20.4 µM)
[9]; Table 2
  MIC H3: 32 µg/mL (≈ 81.7 µM)
[10]; Table 2
  MIC P9B: 8 µg/mL (≈ 20.4 µM)
[11]; Table 2
  MIC S1: 16 µg/mL (≈ 40.9 µM)

## CCCCCCC(=O)N1CC(=O)C(=C(O)CC2CCCCC2)C1=O [27b]
[1]; Table 2
  MIC E2: 2 µg/mL (≈ 5.96 µM)
[2]; Table 2
  MIC S4: 4 µg/mL (≈ 11.9 µM)
[3]; Table 2
  MIC P1: 1 µg/mL (≈ 2.98 µM)
[4]; Table 2 and its footnote f
  MIC H4: 0.5 µg/mL (≈ 1.49 µM)
[5]; Table 2
  MIC S2: 4 µg/mL (≈ 11.9 µM)
[6]; Table 2
  MIC E1: 2 µg/mL (≈ 5.96 µM)
[7]; Table 2
  MIC S26: 4 µg/mL (≈ 11.9 µM)
[8]; Table 2
  MIC P9: 0.5 µg/mL (≈ 1.49 µM)
[9]; Table 2
  MIC H3: 4 µg/mL (≈ 11.9 µM)
[10]; Table 2
  MIC P9B: 2 µg/mL (≈ 5.96 µM)
[11]; Table 2
  MIC S1: 2 µg/mL (≈ 5.96 µM)
